Data published in patent publication US6599901B1, “Pyridone substituted benzothiazole derivatives” (Hoffman-La Roche Inc., priority 2001, dated 2003).

Experiments:
[1] = target: T1, human adenosine A2A receptor (Homo sapiens, UniProt P29274); test: [3H]-SCH-58261 binding assay, human adenosine A2A receptor (CHO cell membranes, SPA); conditions: recombinant human A2A receptor in CHO membranes; [3H]-SCH-58261 1 nM; Ki by Cheng-Prussoff; read-out: hA2 (pKi) (converted)
T1 construct: expressed in transfected cells; host or cells: CHO cells, semliki forest virus expression system
Protocol: (§1) The human adenosine A2A receptor was recombinantly expressed in chinese hamster ovary (CHO) cells using the semliki forest virus expression system. Cells were harvested, washed twice by centrifugation, homogenised and again washed by centrifugation. The final washed membrane pellet was suspended in a Tris (50 mM) buffer containing 120 mM NaCl, 5 mM KCl, 2 mM CaCl2 and 10 mM MgCl2 (pH 7.4) (buffer A). The [^3H]-SCH-58261 (Dionisotti et al., 1997, Br J Pharmacol 121, 353; 1 nM) binding assay was carried out in 96-well plates in the presence of 2.5 μM of membrane protein, 0.5 mg of Ysi-poly-1-lysine SPA beads and 0.1 U adenosine deaminase in a final volume of 200 μl of buffer A. Non-specific binding was defined using xanthine amine congener (XAC; 2 μM). Compounds were tested at 10 concentrations from 10 μM-0.3 nM. All assays were conducted in duplicate and repeated at least two times. Assay plates were incubated for 1 hour at room temperature before centrifugation and then bound ligand determined using a Packard Topcount scintillation counter. IC50 values were calculated using a non-linear curve fitting program and Ki values calculated using the Cheng-Prussoff equation.

[2] = target: T2, human adenosine A1 receptor (Homo sapiens, UniProt P30542); test: [3H]-DPCPX binding assay, human adenosine A1 receptor (CHO cell membranes, SPA); conditions: recombinant human A1 receptor in CHO membranes; [3H]-DPCPX 0.6 nM; Ki by Cheng-Prussoff; read-out: hA1 (pKi) (converted)
T2 construct: expressed in transfected cells; host or cells: CHO cells, semliki forest virus expression system
T2 sequence (P30542 1-326): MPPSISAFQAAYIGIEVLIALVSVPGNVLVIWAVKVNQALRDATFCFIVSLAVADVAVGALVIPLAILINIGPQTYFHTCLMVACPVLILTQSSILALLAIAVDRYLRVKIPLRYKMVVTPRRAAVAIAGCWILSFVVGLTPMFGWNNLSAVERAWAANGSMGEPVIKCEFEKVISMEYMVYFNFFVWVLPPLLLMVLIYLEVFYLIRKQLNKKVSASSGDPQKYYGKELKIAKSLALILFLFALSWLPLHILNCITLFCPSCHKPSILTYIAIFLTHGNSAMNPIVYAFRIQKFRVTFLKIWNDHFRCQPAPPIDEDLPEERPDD
Protocol: as §1, with “adenosine A1” for “adenosine A2A”, “The [^3H]-DPCPX (([propyl-^3H]8-cyclopentyl-1,3-dipropyxanthine); 0.6” for “The [^3H]-SCH-58261 (Dionisotti et al., 1997, Br J Pharmacol 121, 353; 1”, “2.5 μg” for “2.5 μM”

T1 sequence (P29274 whole entry): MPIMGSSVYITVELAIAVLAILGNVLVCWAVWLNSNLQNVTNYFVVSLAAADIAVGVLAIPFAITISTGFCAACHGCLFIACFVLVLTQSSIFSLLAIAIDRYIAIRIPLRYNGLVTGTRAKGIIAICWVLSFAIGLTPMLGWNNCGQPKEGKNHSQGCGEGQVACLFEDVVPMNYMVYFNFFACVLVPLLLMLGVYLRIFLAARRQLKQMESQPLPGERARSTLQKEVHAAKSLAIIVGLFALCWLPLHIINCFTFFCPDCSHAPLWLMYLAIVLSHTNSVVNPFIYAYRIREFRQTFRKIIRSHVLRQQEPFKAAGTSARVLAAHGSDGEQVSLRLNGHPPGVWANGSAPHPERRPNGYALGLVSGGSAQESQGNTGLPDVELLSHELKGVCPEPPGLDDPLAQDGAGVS

Ki [1] | Ki [2] | Structure (SMILES)
2.14 nM | 1260 nM | COc1ccc(N2CCOCC2)c2sc(NC(=O)c3ccn(Cc4ccccc4)c(=O)c3)nc12 [Example 1, 1-Benzyl-2-oxo-1,2-dihydro-pyridine-4-carboxylic Acid (4-Methoxy-7-morpholin-4-yl-benzothiazol-2-yl)-amide]
6.46 nM |  | CCOC(=O)Cn1ccc(C(=O)Nc2nc3c(OC)ccc(N4CCOCC4)c3s2)cc1=O [Example 2, [4-(4-Methoxy-7-morpholin-4-yl-benzothiazol-2-ylcarbamoyl)-2-oxo-2H-pyridin-1-yl]-acetic Acid Ethyl Ester]
5.75 nM |  | CCC(=O)Cn1ccc(C(=O)Nc2nc3c(OC)ccc(N4CCOCC4)c3s2)cc1=O [Example 3, 2-oxo-1-(2-oxo-Butyl)-1,2-dihydro-pyridine-4-carboxylic Acid (4-Methoxy-7-morpholin-4-yl-benzothiazol-2-yl)-amide]
7.94 nM |  | COc1ccc(N2CCOCC2)c2sc(NC(=O)c3ccn(Cc4ccccn4)c(=O)c3)nc12 [Example 4, 2-oxo-1-Pyridin-2-ylmethyl-1,2-dihydro-pyridine-4-carboxylic Acid (4-Methoxy-7-morpholin-4-yl-benzothiazol-2-yl)-amide]
58.9 nM |  | COc1ccc(N2CCOCC2)c2sc(NC(=O)c3ccn(CC(=O)N4CCOCC4)c(=O)c3)nc12 [Example 5, 1-(2-Morpholin-4-yl-2-oxo-ethyl)-2-oxo-1,2-dihydro-pyridine-4-carboxylic Acid (4-Methoxy-7-morpholin-4-yl-benzothiazol-2-yl)-amide]
50.1 nM |  | COc1ccc(N2CCOCC2)c2sc(NC(=O)c3ccn(CC(=O)N(C)C)c(=O)c3)nc12 [Example 6, 1-Dimethylcarbamoylmethyl-2-oxo-1,2-dihydro-pyridine-4-carboxylic Acid (4-Methoxy-7-morpholin-4-yl-benzothiazol-2-yl)-amide]
